Results from PMC4413193, “3-[4-(1H-Indol-3-yl)-1,3-thiazol-2-yl]-1H-pyrrolo[2,3-b]pyridines, Nortopsentin Analogues with Antiproliferative Activity” (Marine Drugs, 2015).
Entries after “also recorded” stand apart in the source; their conditions may differ.

Key:
HepG2 cells [1] = assay: Phosphatidylserine exposure, Annexin V-FITC/PI flow cytometry; format: cell-based, human; settings: HepG2, 24 h, at GI50 values
Experimental: Apoptosis induction by 3d and 3k in HepG2 cells was investigated by externalization of plasma membrane phosphatidylserine and changes of mitochondrial transmembrane potential.
The apoptosis-induced PS externalization to the cell surface was measured by flow cytometry by double staining with Annexin V-Fluorescein isothiocyanate (Annexin V-FITC)/propidium iodide (PI). Annexin V binding to phosphatidylserine is used to identify the earliest stage of apoptosis. […] HepG2 cells were seeded in triplicate in 24-wells culture plates at a density of 2.0 × 10^5 cells/cm^2. After an overnight incubation, cells were washed with fresh medium and incubated with the compounds in RPMI. After 24 h, cells were harvested by trypsinization and adjusted at 2.0 × 10^5 cells/mL with combining buffer. One hundred μL of cell suspended solution was added to a new tube, and incubated with 5 µL annexin V and 10 μL of a 20 μg/mL PI solution at room temperature in the dark for 15 min. Then at least 1.0 × 10^4 cells were immediately subjected to FACS analysis using appropriate 2-bidimensional gating method.

[2] = test system: normal immortalized human liver cells (Chang); assay: MTT viability assay, Chang liver cells; format: cell-based; settings: identical conditions to HepG2 (72 h, 0.1–10 μM)
Experimental: Cell growth inhibitory activity of compounds 3d and 3k was also investigated on human HepG2 hepatocarcinoma cells, a cell line not included in the NCI panel and of interest in the drug discovery because provided with a very active microsomal system for detoxification of xenobiotics. Monolayer cultures treated for 72 h with 0.1–10 μM concentrations of the compounds were examined by 3-(4,5-dimethylthiazol-2-yl)-2,5-diphenyltetrazolium bromide (MTT) assay for cell growth. […] Human cell lines of hepatoma HepG2 and Chang liver were purchased from American Type Culture Collection, Rockville, MD, USA. Cells were grown in RPMI supplemented with 2 mM L-glutamine, 10% FBS, 100 U/mL penicillin, 100 μg/mL streptomycin and 5 μg/mL gentamicin. HepG2 culture medium also contained 1.0 mM sodium pyruvate. Cells were maintained in log phase by seeding twice a week at a density of 3 × 10^8 cells/L in humidified 5% CO2 atmosphere, at 37 °C. In all experiments, cells were made quiescent through overnight incubation before the treatment with the compounds or vehicle alone (control cells). No differences were found between cells treated with DMSO 0.1% and untreated cells in terms of cell number and viability. […] Briefly, HepG2 and Chang cells were plated at 5 × 10^4 cells/well in 96-well plates containing 200 μL RPMI. […] The absorbance at 540 nm was measured in a microplate reader (Bio-RAD, Hercules, CA, USA). […]

NCI-H226 = assay: NCI-60 in vitro tumor cell growth inhibition, NCI-H226 (non-small cell lung cancer); format: cell-based; settings: Homo sapiens, five concentration levels
Experimental: (§1) All the synthesized thiazoles 3a–k were evaluated by the National Cancer Institute (Bethesda MD) for cytotoxicity against the NCI-60 cell line panel using standard protocols. Initially, the selected derivatives 3c,d,g,h,j,k were tested at a single dose (10^−5 M) on the full panel of approximately 60 human tumor cell lines derived from 9 human cancer cell types, that have been grouped in disease sub-panels including leukemia, non-small-cell lung, colon, central nervous system (CNS), melanoma, ovarian, renal, prostate and breast cancers (data not shown). Compounds 3d and 3k were further selected for full evaluation at five concentration levels (10^−4–10^−8 M).
(§2) The antitumor activity of compounds 3d and 3k was given by three parameters for each cell line: GI50 (the molar concentration of the compound that inhibits 50% net cell growth), TGI (the molar concentration of the compound leading to total inhibition of net cell growth), and LC50 (the molar concentration of the compound that induces 50% net cell death). The average values of mean graph midpoint (MG_MID) were calculated for each of these parameters.

SF-295 = assay: NCI-60 in vitro tumor cell growth inhibition, SF-295 (CNS cancer); format: cell-based; settings: Homo sapiens, five concentration levels
Experimental: as §1, §2

RPMI-8226 = assay: NCI-60 in vitro tumor cell growth inhibition, RPMI-8226 (leukemia); format: cell-based; settings: Homo sapiens, five concentration levels 10^−4–10^−8 M
Experimental: as §1, §2

HepG2 cells [3] = assay: Acridine orange/ethidium bromide morphological staining; format: cell-based, human; settings: HepG2, 24 h, at GI50 concentration
Text: To confirm apoptotic mechanism of cytotoxicity of the nortopsentin analogues, we carried out morphological evaluation of HepG2 cells using AO and EB double staining. […] Moreover, fluorescing orange cells owing to increase of cell permeability to ethidium bromide, cell shrinkage and nuclear fragmentation were also evident as cells in late apoptosis (Figure 3B). Taken together, these findings provided strong evidence that the synthesized nortopsentin analogues induced apoptosis in HepG2 cells.
Acridine orange (AO) stains DNA bright green, allowing visualization of the nuclear chromatin pattern and stains both live and dead cells. Ethidium bromide (EB) stains DNA orange but is excluded by viable cells. Dual staining allows separate enumeration of populations of viable non-apoptotic, viable (early) apoptotic, nonviable (late) apoptotic, and necrotic cells. Live cells appear uniformly green. […] Late apoptotic cells incorporate EB and therefore stain orange, but, in contrast to necrotic cells, the late apoptotic cells show condensed and often fragmented nuclei. Necrotic cells stain orange, but have a nuclear morphology resembling that of viable cells, with no condensed chromatin. Briefly, after HepG2 cells were treated with 3d or 3k compounds for 24 h, the medium was discarded. […]

MDA-MB-468 = assay: NCI-60 in vitro tumor cell growth inhibition, MDA-MB-468 (breast cancer); format: cell-based; settings: Homo sapiens, five concentration levels
Experimental: as §1, §2

SW-620 = assay: NCI-60 in vitro tumor cell growth inhibition, SW-620 (colon cancer); format: cell-based; settings: Homo sapiens, five concentration levels
Experimental: as §1, §2

ACHN = assay: NCI-60 in vitro tumor cell growth inhibition, ACHN (renal cancer); format: cell-based; settings: Homo sapiens, five concentration levels
Experimental: as §1, §2

SNB-75 = assay: NCI-60 in vitro tumor cell growth inhibition, SNB-75 (CNS cancer); format: cell-based; settings: Homo sapiens, five concentration levels
Experimental: as §1, §2

SK-MEL-5 = assay: NCI-60 in vitro tumor cell growth inhibition, SK-MEL-5 (melanoma); format: cell-based; settings: Homo sapiens, five concentration levels
Experimental: as §1, §2

HCT-116 = assay: NCI-60 in vitro tumor cell growth inhibition, HCT-116 (colon cancer); format: cell-based; settings: Homo sapiens, five concentration levels
Experimental: as §1, §2

MDA-MB-231/ATCC = assay: NCI-60 in vitro tumor cell growth inhibition, MDA-MB-231/ATCC (breast cancer); format: cell-based; settings: Homo sapiens, five concentration levels
Experimental: as §1, §2

SN12C = assay: NCI-60 in vitro tumor cell growth inhibition, SN12C (renal cancer); format: cell-based; settings: Homo sapiens, five concentration levels
Experimental: as §1, §2

A549/ATCC = assay: NCI-60 in vitro tumor cell growth inhibition, A549/ATCC (non-small cell lung cancer); format: cell-based; settings: Homo sapiens, five concentration levels
Experimental: as §1, §2

UO-31 = assay: NCI-60 in vitro tumor cell growth inhibition, UO-31 (renal cancer); format: cell-based; settings: Homo sapiens, five concentration levels
Experimental: as §1, §2

Row | Compound | apoptosis induction, externalized phosphatidylserine (HepG2 cells [1]) | viability of normal immortalized human liver cells (Chang) [2] | GI50 (NCI-H226) [nM] | GI50 (SF-295) [nM] | GI50 (RPMI-8226) [nM] | morphological evaluation, AO and EB double staining (HepG2 cells [3]) | GI50 (MDA-MB-468) [nM] | GI50 (SW-620) [nM] | GI50 (ACHN) [nM] | GI50 (SNB-75) [nM] | GI50 (SK-MEL-5) [nM] | GI50 (HCT-116) [nM] | GI50 (MDA-MB-231/ATCC) [nM] | GI50 (SN12C) [nM] | GI50 (A549/ATCC) [nM] | GI50 (UO-31) [nM]
1 | Cn1cc(-c2csc(-c3cn(C)c4ncccc34)n2)c2ccccc21 [Compound 3d, 1-Methyl-3-[4-(1-methyl-1H-indol-3-yl)-1,3-thiazol-2-yl]-1H-pyrrolo[2,3-b]pyridine] | high percentage of cells in early apoptosis | did not affect normal immortalized human liver cells (Chang); also recorded: did not substantially impaired viability | 740 | 240 | 450 | chromatin condensation and nuclear fragmentation | 280 | 220 | 720 | 160 | 240 | 370 | 2820 | 12100 | 560 | 900
2 | Cn1cc(-c2nc(-c3c[nH]c4ccccc34)cs2)c2cccnc21 [Compound 3k, 3-[4-(1H-Indol-3-yl)-1,3-thiazol-2-yl]-1-methyl-1H-pyrrolo[2,3-b]pyridine] | high percentage of cells in early apoptosis | did not affect normal immortalized human liver cells (Chang); also recorded: did not substantially impaired viability | 650 | 310 | 650 | chromatin condensation and nuclear fragmentation | 230 | 300 | 510 | 140 | 270 | 390 | 1290 | 5480 | 710 | 690
